# From article PMC4569695, “Optogenetic manipulation of cGMP in cells and animals by the tightly light-regulated guanylyl-cyclase opsin CyclOp” (Nature Communications, 2015)
# Molecular target: T1, bPGC (Beggiatoa sp. PS, UniProt Z9M4H6XJE9, K200E/D268K/T270G)
# T1 construct: triple mutant of human codon-optimized bPAC, C-terminal YFP, expressed in Xenopus oocytes
# T1 sequence (Z9M4H6XJE9 4-353 K200E/D268K/T270G): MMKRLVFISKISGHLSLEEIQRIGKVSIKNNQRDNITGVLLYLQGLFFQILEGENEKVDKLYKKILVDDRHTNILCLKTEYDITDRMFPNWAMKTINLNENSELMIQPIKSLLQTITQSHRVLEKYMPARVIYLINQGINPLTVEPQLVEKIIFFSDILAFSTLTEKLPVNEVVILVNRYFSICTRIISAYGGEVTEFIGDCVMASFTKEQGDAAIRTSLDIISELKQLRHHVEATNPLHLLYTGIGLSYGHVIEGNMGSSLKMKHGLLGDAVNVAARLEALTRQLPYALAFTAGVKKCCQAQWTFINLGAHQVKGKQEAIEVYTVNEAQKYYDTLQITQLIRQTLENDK
# Assay: cGMP immunoassay, extracts of intact oocytes
# Assay type: cell-based
# Conditions: endogenous GTP, 464 nm light
smiles,measurement,value
Nc1nc2c(ncn2[C@@H]2O[C@H](COP(=O)(O)OP(=O)(O)OP(=O)(O)O)[C@@H](O)[C@H]2O)c(=O)[nH]1 [GTP],"cGMP immunoassay, extracts of intact oocytes",bPGC produced at least one cAMP for every four cGMP molecules under in vivo conditions
